“And” between values parts separate entries of the source, which are not always exact repeats. Equal values may be shown once. Read-outs that look alike come from different tables or passages of the source.
What was measured:
[1] = system: HEK-Blue IL-1β cells stimulated with hIL-1β; test: HEK293 reporter gene assay, hIL-1β as trigger; format: cell-based, human; parameters: RGA HEK293, average / RGA HEK293, curve fit: unit not given here; conditions: for RGA HEK293, average / RGA HEK293, curve fit: per experiment
Protocol: (§1) We used HEK-Blue™ IL-1β cells that respond specifically to IL-1 (# hkb-il1b, InvivoGen). These cells can detect IL-1α and IL-1β, as these cytokines bind to the same receptor, IL-1R1. They express a Seap reporter gene under the control of the IFN-β minimal promoter fused to five NF-kappaB and five AP-1 binding sites. Thirty microliters (300,000 cells/ml) per well of a 384-well plate were plated overnight. Cells were then stimulated with graded concentrations of cytokines (hIL-1α or hIL-1β) in the absence or presence of canakinumab (Ilaris®, ILARI LYVI 150MG 22GLW.012, batch U003 0409)[22], anakinra (Kineret®, 100 mg/0.67 ml injectable solution, Sobi)[23], or compound (S)-2 (compounds were pre-mixed for 1 h with the cytokine prior to addition to cells) and further incubated overnight before assessment of Seap activity.

[2] = system: HEK-Blue IL-1β cells stimulated with hIL-1α; test: HEK293 reporter gene assay, hIL-1α as trigger; format: cell-based, human
Protocol: as §1

[3] = system: normal human dermal fibroblasts stimulated with hIL-1α; test: Human fibroblast IL-6 release assay, hIL-1α stimulated; format: cell-based; parameters: IL-1alpha (mean, SD): mean readout (IL-6 release): unit not given here; conditions: for Mean OD (OD 450nm) / IL-1alpha (mean, SD): mean readout (IL-6 release): Figure 3c; for Mean OD (OD 450nm): compound 500 nM; for IL-1alpha (mean, SD): mean readout (IL-6 release): compound @ 50uM
Protocol: as §1
Normal human dermal fibroblasts (NHDF) from Clonetics^TM (LONZA, Cat # CC-2509 (NHDF-Neo), Lot # 0000234242, used at passage ≤14) were seeded at a density of 5000 cells/well in 100 μL of culture medium using 96-well plates (flat bottom, TCT). Treatment with cytokines/compounds was performed as described above. Cells were incubated for another 6 h and were subsequently spun down (320g/3 min). IL-6 was measured in the supernatant by ELISA (BioLegend, # 430503) or HTRF (Cisbio, #62HIL06PEH).

[4] = system: CHO IL-1R1 reporter cell line stimulated with IL-1β; test: NanoBiT reporter assay, CHO IL-1R1 cells, IL-1β driven; format: cell-based; parameters: average: scale not given here; conditions: for average: IL-1beta
Protocol: Reporter cell system for NanoBiT assay
CHO IL-36R or CHO IL-1R1 reporter cell lines, prepared internally (Klemens Ka u p ma n n ), based on tagged IL-1RAcP and Myd88 proteins using the NanoBiT complementation system, were seeded at a densi ty of 10’000 cells/well in 30 µL of OptiMEM + 0.1 % FCS medium using 384-well plates (white, TCT), for 24 hours.
Before the treatment, the medium was removed, 20 µL of NanoGlo substrate, (#N2012, Pr o me g a ) were added to the wells. Following substrate addi ti on, 240 nL of compound were added to the wells using an ECH O dispenser device. Then, 3.76 µL of the ligand IL-36g (Novartis) at 200 ng/mL end concentration or recombinant IL-1b (Novartis) at 500 pg/mL end concentration were added to the mix. Luminescence was measured at 405 nm after 30 min incubation (Pherastar reader). […]

In the case of `Cc1ccc2c(c1)NC(=O)[C@@]2(c1cn[nH]c1)c1cc(-c2ccc(C(=O)O)cc2C(=O)O)ccc1O` [Compound (S)-2], the “reporter activity induced by hIL-1β” value [1] is reported as “efficiently inhibited the reporter activity induced by hIL-1β”, the “RGA HEK293, average” value ([1]; 3.125 uM) is reported as 29.4705 and 28.9635 and 25.1151 and 32.9049 and 27.4138 and 39.0499 and 38.2996 and 37.0235 and the “RGA HEK293, curve fit” value ([1]; 3.125 uM) is reported as 30.4654 and 27.1823 and 20.8299 and 28.629 and 26.4966 and 33.5898 and 33.5814 and 32.8647. The “RGA HEK293, average” value ([1]; 6.25 uM) was 54.0943 and 50.2167 and 45.7315 and 52.6564 and 46.7509 and 54.9517 and 53.8737 and 52.9197, the “RGA HEK293, curve fit” value ([1]; 6.25 uM) was 53.4932 and 49.1303 and 45.443 and 53.6627 and 46.4685 and 55.6955 and 53.7771 and 53.2389 and the “RGA HEK293, average” value ([1]; 12.5 uM) was 72.3524 and 70.9823 and 68.0128 and 77.9349 and 67.4822 and 74.7182 and 71.0369 and 70.438. The “RGA HEK293, curve fit” value ([1]; 12.5 uM) was 72.9412 and 71.3657 and 68.2903 and 76.9195 and 67.593 and 75.1363 and 72.2128 and 71.5012, the “RGA HEK293, average” value ([1]; 25 uM) was 87.2975 and 85.2654 and 82.5363 and 87.9606 and 82.8729 and 86.3527 and 84.3067 and 83.9822 and the “RGA HEK293, curve fit” value ([1]; 25 uM) was 85.8483 and 86.5666 and 83.9461 and 90.5811 and 83.387 and 87.7879 and 85.1743 and 84.4134. The “RGA HEK293, average” value ([1]; 50 uM) was 94.5457 and 94.2398 and 91.9589 and 95.03 and 93.0282 and 93.3172 and 89.9086 and 89.6999, the “RGA HEK293, curve fit” value ([1]; 50 uM) was 93.0784 and 94.3616 and 92.5512 and 96.5403 and 92.3805 and 94.467 and 92.6851 and 92.0672 and the “RGA HEK293, average” value ([1]; 100 uM) was 97.772 and 97.6887 and 95.147 and 97.9006 and 96.9482 and 94.6055 and 95.59 and 95.4988. The “RGA HEK293, curve fit” value ([1]; 100 uM) was 96.7406 and 97.7627 and 96.7045 and 98.7877 and 96.7132 and 97.5984 and 96.5496 and 96.1302, the IC50 ([1]; Homo sapiens, hIL-1β, read-out: RGA HEK293 IC50) was 5.3 ± 0.3 µM and the IC50 ([1]; Homo sapiens, source data, read-out: RGA HEK293 IC50, individual experiments) was 4.15 µM. For the same compound, the IC50 ([1]; source data, read-out: RGA HEK293 IC50, individual experiments) was 6.4 µM and 5.37 µM and 5.67 µM and 6.98 µM and 4.84 µM and 5.05 µM and 4.72 µM, the “reporter activity with hIL-1α as trigger” value [2] was “ineffective” and the “effect on hIL-1α driven IL-6 release” value [3] was “had no effect on hIL-1α driven IL-6 release”. The “Mean OD (OD 450nm)” value ([3]; hu IL-1A 0 pg/mL) was 0.031, the “Mean OD (OD 450nm)” value ([3]; hu IL-1A 40 pg/mL) was 0.372 and the “Mean OD (OD 450nm)” value ([3]; hu IL-1A 80 pg/mL) was 0.573. For the same compound, the “Mean OD (OD 450nm)” value ([3]; hu IL-1A 120 pg/mL) was 0.693, the “Mean OD (OD 450nm)” value ([3]; hu IL-1A 160 pg/mL) was 0.736 and the “Mean OD (OD 450nm)” value ([3]; hu IL-1A 200 pg/mL) was 0.751. For the same compound, the “IL-1alpha (mean, SD): mean readout (IL-6 release)” value (“IL-1alpha (mean, SD): mean readout” for short) ([3]; hu IL-1a 0 pg/mL) was 0, the “IL-1alpha (mean, SD): mean readout” value ([3]; hu IL-1a 40 pg/mL) was 1994.8 and the “IL-1alpha (mean, SD): mean readout” value ([3]; hu IL-1a 80 pg/mL) was 3486.9. The “IL-1alpha (mean, SD): mean readout” value ([3]; hu IL-1a 120 pg/mL) was 4374.4, the “IL-1alpha (mean, SD): mean readout” value ([3]; hu IL-1a 160 pg/mL) was 4691.2 and the “IL-1alpha (mean, SD): mean readout” value ([3]; hu IL-1a 200 pg/mL) was 4802.2. The “IL-1β-driven NanoBiT reporter activity” value [4] was “inhibited the reporter activity driven”, the average ([4]; EXP1, conc 0.00610352 uM) was -2.539 and the average ([4]; EXP1, conc 0.012207 uM) was 1.596. The average ([4]; EXP1, conc 0.0244141 uM) was -3.451, the average ([4]; EXP1, conc 0.0488281 uM) was 3.112 and the average ([4]; EXP1, conc 0.0976562 uM) was 2.615. For the same compound, the average ([4]; EXP1, conc 0.195312 uM) was -0.4746, the average ([4]; EXP1, conc 0.390625 uM) was 9.543 and the average ([4]; EXP1, conc 0.78125 uM) was 7.593. The average ([4]; EXP1, conc 1.5625 uM) was 13.469, the average ([4]; EXP1, conc 3.125 uM) was 26.7566 and the average ([4]; EXP1, conc 6.25 uM) was 37.1219. For the same compound, the average ([4]; EXP1, conc 12.5 uM) was 46.91, the average ([4]; EXP1, conc 25 uM) was 52.2595 and the average ([4]; EXP1, conc 50 uM) was 56.8016. The average ([4]; EXP1, conc 100 uM) was 68.8694, the average ([4]; EXP2, conc 0.00610352 uM) was -2.716 and the average ([4]; EXP2, conc 0.012207 uM) was 3.9057. The average ([4]; EXP2, conc 0.0244141 uM) was -3.335, the average ([4]; EXP2, conc 0.0488281 uM) was 6.501 and the average ([4]; EXP2, conc 0.0976562 uM) was 5.016. The average ([4]; EXP2, conc 0.195312 uM) was 1.522, the average ([4]; EXP2, conc 0.390625 uM) was 11.9124 and the average ([4]; EXP2, conc 0.78125 uM) was 10.8854. It also gave an average ([4]; EXP2, conc 1.5625 uM) of 17.5198, an average ([4]; EXP2, conc 3.125 uM) of 31.5581 and an average ([4]; EXP2, conc 6.25 uM) of 41.289. The average ([4]; EXP2, conc 12.5 uM) was 51.7241, the average ([4]; EXP2, conc 25 uM) was 56.0031 and the average ([4]; EXP2, conc 50 uM) was 59.3287. The average ([4]; EXP2, conc 100 uM) was 71.2739, the average ([4]; EXP3, conc 0.00610352 uM) was 1.19 and the average ([4]; EXP3, conc 0.012207 uM) was 3.77. For the same compound, the average ([4]; EXP3, conc 0.0244141 uM) was 3.912, the average ([4]; EXP3, conc 0.0488281 uM) was 4.68 and the average ([4]; EXP3, conc 0.0976562 uM) was -1.021. The average ([4]; EXP3, conc 0.195312 uM) was 3.354, the average ([4]; EXP3, conc 0.390625 uM) was 4.389 and the average ([4]; EXP3, conc 0.78125 uM) was 9.349. It also gave an average ([4]; EXP3, conc 1.5625 uM) of 13.3994, an average ([4]; EXP3, conc 3.125 uM) of 22.0107 and an average ([4]; EXP3, conc 6.25 uM) of 30.3621. For the same compound, the average ([4]; EXP3, conc 12.5 uM) was 43.476, the average ([4]; EXP3, conc 25 uM) was 49.8685 and the average ([4]; EXP3, conc 50 uM) was 57.8931. It also gave an average ([4]; EXP3, conc 100 uM) of 64.0514.

From publication PMC10484922, “Discovery of a selective and biologically active low-molecular weight antagonist of human interleukin-1β” (Nature Communications, 2023)
